Values of other authors in US20130096060A1, “GLP-1 AGONIST FOR USE IN THE TREATMENT OF STENOSIS OR/AND OBSTRUCTION IN THE PANCREATIC DUCT SYSTEM” (priority 2011, published 2013).

Columns and labels:
[1] = system: acinar cells of the guinea pig pancreas; settings: by interaction with exendin receptors (Raufman, 1996)
[2] = system: acinar cells of the pancreas; settings: in contrast to exendin-4

In the case of “exendin-3: peptide of the exendin group, able to lower blood glucose concentrations”, the “cellular cAMP production” value [1] is given as “stimulate an increase” and the amylase release [2] is given as “produces an increase”.
For “exendin-4: peptide of the exendin group, 39 AS, SEQ ID NO: 2, able to lower blood glucose concentrations”, the “cellular cAMP production” value [1] is listed as “stimulate an increase”.
